72 compounds from paper PMC6792352, “Limited Chemical Structural Diversity Found to Modulate Thyroid Hormone Receptor in the Tox21 Chemical Library” (Environmental Health Perspectives, 2019) can be followed below.

Counter-ions that a name gives are not always drawn.

Usually CC50 stands for the concentration that lowers cell viability or growth by half.

The nature of this series: in vitro. The following applies: rat, gh3-tre-luc cells.

Turning to `CC1=CC(=O)CC(C)(C)C1` [Isophorone], the CC50 at 24 h (AC50 (uM) modified / 1000) is more than 90 µM.
The same measure, in the same setting: next, `CCC1(c2ccccc2)C(=O)NC(=O)N(C)C1=O` (centres unmarked) [Mephobarbital]: more than 50 µM.
`Cc1ccc(-c2nc3ccc(C)cn3c2CC(=O)N(C)C)cc1` [Zolpidem] had a CC50 at 24 h (AC50 (uM) modified / 1000) of more than 50 µM.
In the case of `CC(=O)CCc1ccc2c(c1)OCO2` [Piperonyl acetone], the CC50 at 24 h (AC50 (uM) modified / 1000, Tox21_110001=Tox21_302658, viability, 1 nM T3 present, 24 h) is more than 90 µM.
For the compound `NNC(=O)c1cccnc1` [Nicotinic acid hydrazide], the CC50 at 24 h (AC50 (uM) modified / 1000, Tox21_110001=Tox21_200666, viability, 1 nM T3 present, 24 h) was more than 90 µM.
With `CCCCC[C@H](O)/C=C/[C@@H]1[C@H]2C/C(=C/CCCC(=O)O)O[C@H]2C[C@H]1O` [Epoprostenol sodium], under “AC50 (uM) modified / 1000”, the CC50 at 24 h was more than 50 µM.
As for `Cc1ccc(O)c(O)c1` [4-Methylcatechol], under “AC50 (uM) modified / 1000”, the CC50 at 24 h is 38.5 µM. In other words, the double-digit micromolar range.
`CNC(=O)Oc1cccc(N=CN(C)C)c1` [Formetanate hydrochloride] returned a CC50 at 24 h (AC50 (uM) modified / 1000, Tox21_110001=Tox21_300778, viability, 1 nM T3 present, 24 h) of more than 90 µM.
`O=C(CCl)c1ccc(Oc2ccc(C(=O)CCl)cc2)cc1` [Clofenoxyde] came in with a 50% cytotoxic concentration (CC50) at 24 h (AC50 (uM) modified / 1000, Tox21_110001=Tox21_111802, viability, 1 nM T3 present, 24 h) of more than 50 µM.
For `c1ccc2c(c1)-c1cccc3c1c-2cc1ccccc13` [Benzo(b)fluoranthene], the CC50 at 24 h (AC50 (uM) modified / 1000) was more than 90 µM.
The compound `Clc1cc(Cl)c(-c2cc(Cl)c(Cl)cc2Cl)cc1Cl` [2,2',4,4',5,5'-Hexachlorobiphenyl] displayed a CC50 at 24 h (AC50 (uM) modified / 1000, Tox21_110001=Tox21_202470, viability, 1 nM T3 present, 24 h) of more than 40 µM.
Compound `CCN(CCO)CCn1c(Cc2ccccc2)nc2c1c(=O)n(C)c(=O)n2C` [Bamifylline Hydrochloride] had a CC50 at 24 h (AC50 (uM) modified / 1000) of more than 50 µM.
As for `CN1C(CSCC(F)(F)F)Nc2cc(Cl)c(S(N)(=O)=O)cc2S1(=O)=O` (centres unmarked) [Polythiazide], the CC50 at 24 h (AC50 (uM) modified / 1000) is more than 50 µM.
Still for that read-out and setting: under `NNC(N)=O` [Semicarbazide hydrochloride] stands more than 90 µM; under `C=CCOC(=O)CCC1CCCCC1` [Prop-2-en-1-yl 3-cyclohexylpropanoate], more than 90 µM.
Where the note is “AC50 (uM) modified / 1000”, `CCCCC1CCC(O)CC1` (centres unmarked) [4-Butylcyclohexanol] returned a CC50 at 24 h of more than 90 µM.
Same read-out and setting: next, `CC(C)CCCCCCOC(=O)CCCCC(=O)OCCCCCCC(C)C` [Hexanedioic acid, diisononyl ester]: more than 90 µM; `Cc1ccco1` [2-Methylfuran]: more than 90 µM; `CCc1ccc(O)cc1` [4-Ethylphenol]: more than 90 µM.
Compound `O=C(c1ccc(O)cc1)c1ccc(Cl)cc1` [4-Hydroxy-4'-chlorobenzophenone] gave a CC50 at 24 h (AC50 (uM) modified / 1000) of more than 90 µM.
`COc1cc(Cl)c(OC)cc1Cl` [Chloroneb]: the CC50 at 24 h (AC50 (uM) modified / 1000, Tox21_110001=Tox21_300739, viability, 1 nM T3 present, 24 h) is more than 90 µM.
Regarding `CCC(CO)(CO)[N+](=O)[O-]` [2-Ethyl-2-nitro-1,3-propanediol], the CC50 at 24 h (AC50 (uM) modified / 1000) was more than 90 µM.
Still for that read-out and setting: next, `CC1=C(/C=C/C(C)=C/C=C/C(C)=C\C=O)C(C)(C)CCC1` [13-cis-Retinal]: 45.2 µM; `CCC1NC(=O)c2cc(S(N)(=O)=O)c(Cl)cc2N1` (centres unmarked) [Quinethazone]: more than 20 µM.
The compound `CC(C)NC(=O)c1ccccc1N` [2-Amino-N-(1-methylethyl)benzamide] gave a CC50 at 24 h (AC50 (uM) modified / 1000) of more than 90 µM.
On to `CC(Cc1ccccc1)NC=O` (centres unmarked) [Formetorex], for which, where the note is “AC50 (uM) modified / 1000, Tox21_110001=Tox21_111794, viability, 1 nM T3 present, 24 h”, the CC50 at 24 h is more than 50 µM.
For the setting “AC50 (uM) modified / 1000”, `NC(=O)c1nc(-c2cccc(-c3cc(F)ccc3OCC(F)(F)C(F)(F)F)c2)n[nH]1` [MK-274] displayed a CC50 at 24 h of 53.5 µM.
The same measure, in the same setting: under `CN(N=O)c1ccccc1` [Nitrosomethylaniline] stands more than 90 µM; under `CCCCC(C)C(=O)O` (centres unmarked) [2-Methylhexanoic acid], more than 90 µM; under `CCCCCCOC(C)=O` [Hexyl acetate], more than 90 µM.
With `Cc1nc2c([nH]1)c(=O)n(C)c(=O)n2Cc1ccco1` [Furafylline], the CC50 at 24 h (AC50 (uM) modified / 1000) is more than 50 µM.
Where the note is “AC50 (uM) modified / 1000”, `NC(=O)c1ccc([N+](=O)[O-])cc1` [4-Nitrobenzamide] returned a CC50 at 24 h of more than 90 µM.
Still for that read-out and setting: under `CC(=O)O[C@H]1C[C@H](O[C@H]2[C@@H](O)C[C@H](O[C@H]3[C@@H](O)C[C@H](O[C@H]4CC[C@@]5(C)[C@H](CC[C@@H]6[C@@H]5C[C@@H](O)[C@]5(C)[C@@H](C7=CC(=O)OC7)CC[C@]65O)C4)O[C@@H]3C)O[C@@H]2C)O[C@H](C)[C@H]1O[C@@H]1O[C@H](CO)[C@@H](O)[C@H](O)[C@H]1O` [Lanatoside C] stands more than 50 µM.
`IC(I)I` [Iodoform] had a CC50 at 24 h (AC50 (uM) modified / 1000) of more than 90 µM.
As to `C=CCn1cc[n+](C)c1` [1-Allyl-3-methylimidazolium chloride], for the setting “AC50 (uM) modified / 1000”, the CC50 at 24 h was more than 90 µM.
`CC(=O)OCC(=O)[C@@]12OC3(CCCC3)O[C@@H]1C[C@H]1[C@@H]3CCC4=CC(=O)C=C[C@]4(C)[C@@]3(F)[C@@H](O)C[C@@]12C` [Amcinonide] gave a CC50 at 24 h (AC50 (uM) modified / 1000) of more than 50 µM.
Take `COc1cc(C)ccc1O` [2-Methoxy-4-methylphenol]: the CC50 at 24 h (AC50 (uM) modified / 1000) was more than 90 µM.
Where the note is “AC50 (uM) modified / 1000”, `CCN(CCC#N)c1ccc(N=Nc2c(Cl)cc([N+](=O)[O-])cc2Cl)cc1` [C.I. Disperse Orange 37] yielded a CC50 at 24 h of 33.4 µM.
Turning to `CCN(CC)C(C)=O` [Diethylacetamide], the CC50 at 24 h (AC50 (uM) modified / 1000) was more than 100 µM.
For the compound `COc1ccc(CCN(C)CCCC(C#N)(c2cc(OC)c(OC)c(OC)c2)C(C)C)cc1OC` (centres unmarked) [Gallopamil hydrochloride], half-maximal cytotoxicity (AC50 (uM) modified / 1000) (CC50 at 24 h) was put at 21 µM.
Same read-out and setting: next, `O=C(O[C@@H]1C[C@@H]2C[C@H]3C[C@H](C1)N2CC3=O)c1c[nH]c2ccccc12` [Dolasetron mesylate]: 37.3 µM.
Same read-out and setting: next, `CC(C)[C@H](Nc1ccc(C(F)(F)F)cc1Cl)C(=O)OC(C#N)c1cccc(Oc2ccccc2)c1` (some centres unmarked) [Fluvalinate]: more than 90 µM.
The same measure, in the same setting: next, `N=C1NC(=O)N2CC12` (centres unmarked) [Imexon]: more than 50 µM; `COC(=O)c1ccc(C(=O)OC)cc1` [Dimethyl terephthalate]: more than 90 µM; `Cc1cccc(C)c1NC(=O)C(C)N` (centres unmarked) [Tocainide hydrochloride]: more than 20 µM.
Compound `COC(C)(C)C` [Methyl tert-butyl ether] yielded a CC50 at 24 h (AC50 (uM) modified / 1000) of more than 90 µM.
On the same count and under the same terms, next, `O=C(O)CCCCCCCCCC(=O)O` [Undecanedioic acid]: more than 90 µM; `c1ccc(C2CO2)cc1` (centres unmarked) [Styrene oxide]: more than 90 µM.
Where the note is “AC50 (uM) modified / 1000, Tox21_110001=Tox21_202592, viability, 1 nM T3 present, 24 h”, `Cc1ccc2cc3c(ccc4ccccc43)c3c2c1CC3` [3-Methylcholanthrene] yielded a CC50 at 24 h of more than 50 µM.
`COc1ccc(COC(C)=O)cc1` [4-Methoxybenzyl acetate] gave a CC50 at 24 h (AC50 (uM) modified / 1000) of more than 80 µM.
For the compound `CCCCSP(=O)(SCCCC)SCCCC` [Tribufos], where the note is “AC50 (uM) modified / 1000, Tox21_110001=Tox21_201934, viability, 1 nM T3 present, 24 h”, the half-maximal cytotoxic concentration (CC50) at 24 h is more than 90 µM.
For the compound `Clc1ccc(Sc2cc(Cl)c(Cl)cc2Cl)cc1` [Tetrasul], under “AC50 (uM) modified / 1000”, the CC50 at 24 h was more than 90 µM.
On the same count and under the same terms, under `O=C(O)c1ccccc1-c1ccc(C(F)(F)F)cc1` [Xenalipin] stands more than 50 µM.
In the case of `Oc1ccc(Cl)cc1Cc1ccccc1` [Clorophene], the CC50 at 24 h runs as follows: (AC50 (uM) modified / 1000, Tox21_110001=Tox21_111146, viability, 1 nM T3 present, 24 h) 23.9 µM; (AC50 (uM) modified / 1000, Tox21_110001=Tox21_202985, viability, 1 nM T3 present, 24 h) 43.2 µM; (AC50 (uM) modified / 1000, Tox21_110001=Tox21_400046, viability, 1 nM T3 present, 24 h) 61.9 µM.
`C=C(C)[C@H]1CC=C(C)CC1` [D-Limonene] gave a CC50 at 24 h (AC50 (uM) modified / 1000) of more than 90 µM.
Take `Nc1c(Cl)cc([N+](=O)[O-])cc1Cl` [Dicloran]: where the note is “AC50 (uM) modified / 1000”, the CC50 at 24 h was more than 90 µM.
On the same count and under the same terms, under `COc1ccc2c(=O)c(C)c(-c3ccccc3)oc2c1CN(C)C` [Dimefline hydrochloride] stands more than 50 µM; under `CC(=O)Nc1ccc(NC(=S)NC(=O)c2ccc(C(C)(C)C)cc2)cc1` [Tenovin-1], 7.56 µM.
For the setting “AC50 (uM) modified / 1000”, `CCOC(=O)COc1ccc2c(C)c(CCN(CC)CC)c(=O)oc2c1` [Chromonar hydrochloride] gave a CC50 at 24 h of more than 50 µM.
Same read-out and setting: next, `COC(=O)c1ccc(C=O)cc1` [Methyl 4-formylbenzoate]: more than 90 µM; `CN(C(=O)CN(CCO)CC(=O)N(C)C(C)(C)Cc1ccccc1)C(C)(C)Cc1ccccc1` [Oxethazaine]: 16.2 µM; `C=CCCCCCCCCCCCC` [1-Tetradecene]: more than 90 µM.
On the same count and under the same terms, next, `COc1ccc2nc(NC(=O)Nc3ccccc3)sc2c1` [Frentizole]: more than 50 µM.
Same read-out and setting: next, `CCCCC(=O)Cl` [Valeryl chloride]: more than 90 µM; `NC(=O)N(O)[C@@H]1COc2cc(OCc3ccccc3)ccc21` [SB202235]: more than 90 µM.
Turning to `CC(C)[N+](C)(CCOC(=O)C1c2ccccc2Oc2ccccc21)C(C)C` [Propantheline bromide], the CC50 at 24 h (AC50 (uM) modified / 1000) was more than 90 µM.
On the same count and under the same terms, next, `CN1CCC[C@@H]1c1cccnc1` [D-Nicotine]: more than 50 µM; `Nc1ncnc(Nc2ccccc2)n1` [Amanozine]: more than 50 µM; `Fc1ccccc1` [Fluorobenzene]: more than 90 µM.
On the same count and under the same terms, next, `CC(=O)OCC(C)OC(C)=O` (centres unmarked) [Propylene glycol diacetate]: more than 90 µM.
Compound `COc1cc([C@@H]2c3cc4c(cc3[C@@H](O[C@@H]3O[C@@H]5CO[C@@H](C)O[C@H]5[C@H](O)[C@H]3O)[C@H]3COC(=O)[C@H]23)OCO4)cc(OC)c1OP(=O)(O)O` [Etoposide phosphate] came in with a CC50 at 24 h (AC50 (uM) modified / 1000) of more than 50 µM.
In turn, `COC(=O)C(C)(C)C` [Methyl pivalate] came in with a CC50 at 24 h (AC50 (uM) modified / 1000) of more than 90 µM.
